Assay results from the supplement of paper PMC11208160.
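Also: IS621 bridge recombinase in Escherichia coli cells against a fixed T5 target plasmid.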

Test: recombinant UMI read abundance after kanamycin selection (control-corrected) (log10(CPM+1)); higher = more efficient recombination; extreme values may be limits of the assay; sequences stand for … in AGTGCAGAGAAAATCGGCCAGTTTTCTCTGCCTGCAGTCCGCATGCCGTGGGACCCCTTGGGTTCTAACCTGTTGCCTAGATTTATGCAGCGGACTGCCTTTCTCCCAAAGTGATAAACCGG…AGGTTGGTTTCACT; site = the 11-nt donor
Summary of the method: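 Values, expressed as log10(CPM+1), derive from recombinant UMI counts converted to CPM, averaged across replicates and scaled by control-derived factors. Plating was with IPTG (0.07 mM) plus kanamycin or unselected, two replicates each. The screen pooled donor and donor-binding-loop pairs for the IS621 bridge recombinase in Escherichia coli.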
In the case of “CACTTGGCATGGACCGGTTTTCCCGGTAATCCGTATTTGGC (site CACTTGGCTGC)”, the “recombinant UMI read abundance (log10)” value was 1.64. With “CACTTGGCATGGACCGGTTTTCCCGGTAATCCGTATTTGGC (site CACTTGGCTTC)” the “recombinant UMI read abundance (log10)” value was 0.166. With “CACTTGGCATGGACCGGTTTTCCCGGTAATCCGTATTTGGG (site CACTTGGCTAC)” the “recombinant UMI read abundance (log10)” value was 0.0307. For “CACTTGGCATGGACCGGTTTTCCCGGTAATCCGTATTTGGG (site CACTTGGCTCC)”, the “recombinant UMI read abundance (log10)” value was 0.0801. In the case of “CACTTGGCATGGACCGGTTTTCCCGGTAATCCGTATTTGGG (site CACTTGGCTGC)”, the “recombinant UMI read abundance (log10)” value was 0. For “CACTTGGCATGGACCGGTTTTCCCGGTAATCCGTATTTGGG (site CACTTGGCTTC)”, the “recombinant UMI read abundance (log10)” value was 0.0398. For “CACTTGTCATGGACCGGTTTTCCCGGTAATCCGTATTTGGA (site CACTTGACTTC)”, the “recombinant UMI read abundance (log10)” value was 0.0147. With “CACTTGTCATGGACCGGTTTTCCCGGTAATCCGTATTTGGA (site CACTTGCCTTC)” the “recombinant UMI read abundance (log10)” value was 0.0181. For “CACTTGTCATGGACCGGTTTTCCCGGTAATCCGTATTTGGA (site CACTTGGCTTC)”, the “recombinant UMI read abundance (log10)” value was 0.00318. In the case of “CACTTGTCATGGACCGGTTTTCCCGGTAATCCGTATTTGGA (site CACTTGTCTTC)”, the “recombinant UMI read abundance (log10)” value was 1.84. For “CAGAAGTCATGGACCGGTTTTCCCGGTAATCCGTATTTGAC (site CAGAAGTCTGT)”, the “recombinant UMI read abundance (log10)” value was 1.46. In the case of “CAGAATACATGGACCGGTTTTCCCGGTAATCCGTATTTGCA (site AAGAATACTTG)”, the “recombinant UMI read abundance (log10)” value was 0.616. With “CAGAATACATGGACCGGTTTTCCCGGTAATCCGTATTTGCA (site CAGAATACTTG)” the “recombinant UMI read abundance (log10)” value was 2.15. With “CAGAATACATGGACCGGTTTTCCCGGTAATCCGTATTTGCA (site GAGAATACTTG)” the “recombinant UMI read abundance (log10)” value was 0. With “CAGAATACATGGACCGGTTTTCCCGGTAATCCGTATTTGCA (site TAGAATACTTG)” the “recombinant UMI read abundance (log10)” value was 0.38. With “CAGAATCCATGGACCGGTTTTCCCGGTAATCCGTATTTGTC (site CAGAATCCTGA)” the “recombinant UMI read abundance (log10)” value was 2.5. In the case of “CAGAATCCATGGACCGGTTTTCCCGGTAATCCGTATTTGTC (site CGGAATCCTAA)”, the “recombinant UMI read abundance (log10)” value was 0. In the case of “CAGACATCATGGACCGGTTTTCCCGGTAATCCGTATTTGAG (site CAGACATCTCT)”, the “recombinant UMI read abundance (log10)” value was 3.06. In the case of “CAGACCGCATGGACCGGTTTTCCCGGTAATCCGTATTTGTC (site CAGACCGCTGA)”, the “recombinant UMI read abundance (log10)” value was 3.23. For “CAGATGGCATGGACCGGTTTTCCCGGTAATCCGTATTTGTA (site CAGATGGCTTA)”, the “recombinant UMI read abundance (log10)” value was 2.68. For “CAGCACGCATGGACCGGTTTTCCCGGTAATCCGTATTTGGG (site AAGCACGCTCC)”, the “recombinant UMI read abundance (log10)” value was 0.012. For “CAGCACGCATGGACCGGTTTTCCCGGTAATCCGTATTTGGG (site CAGCACGCTCC)”, the “recombinant UMI read abundance (log10)” value was 0.512. For “CAGCACGCATGGACCGGTTTTCCCGGTAATCCGTATTTGGG (site GAGCACGCTCC)”, the “recombinant UMI read abundance (log10)” value was 0.0111. In the case of “CAGCACGCATGGACCGGTTTTCCCGGTAATCCGTATTTGGG (site TAGCACGCTCC)”, the “recombinant UMI read abundance (log10)” value was 0.0838. In the case of “CAGCAGCCATGGACCGGTTTTCCCGGTAATCCGTATTTGGT (site CAGCAGCCTAC)”, the “recombinant UMI read abundance (log10)” value was 0.642. For “CAGCATGCATGGACCGGTTTTCCCGGTAATCCGTATTTGAA (site CAGCATGCTTT)”, the “recombinant UMI read abundance (log10)” value was 2.7. For “CAGCCAACATGGACCGGTTTTCCCGGTAATCCGTATTTGCA (site CAGCCAACTTG)”, the “recombinant UMI read abundance (log10)” value was 2.34. In the case of “CAGCGGTCATGGACCGGTTTTCCCGGTAATCCGTATTTGCC (site CAGCGGTCTGG)”, the “recombinant UMI read abundance (log10)” value was 2.76. In the case of “CAGCTCGCATGGACCGGTTTTCCCGGTAATCCGTATTTGTG (site CAGCTCGCTCA)”, the “recombinant UMI read abundance (log10)” value was 0.0273. In the case of “CAGCTGGCATGGACCGGTTTTCCCGGTAATCCGTATTTGAT (site CAGCTGGCTAT)”, the “recombinant UMI read abundance (log10)” value was 1.63. For “CAGGCATCATGGACCGGTTTTCCCGGTAATCCGTATTTGCA (site CAGGCATCTTG)”, the “recombinant UMI read abundance (log10)” value was 2.53. With “CAGGCCGCATGGACCGGTTTTCCCGGTAATCCGTATTTGAG (site CAGGCCGCTCT)” the “recombinant UMI read abundance (log10)” value was 0.33. For “CAGGGGTCATGGACCGGTTTTCCCGGTAATCCGTATTTGAA (site CAGGGGTCTTT)”, the “recombinant UMI read abundance (log10)” value was 3.02. In the case of “CAGGGTCCATGGACCGGTTTTCCCGGTAATCCGTATTTGGA (site CAGGGTCCTTC)”, the “recombinant UMI read abundance (log10)” value was 0.288. With “CAGGTCACATGGACCGGTTTTCCCGGTAATCCGTATTTGGG (site CAAGTCACTCC)” the “recombinant UMI read abundance (log10)” value was 0.0193. With “CAGGTCACATGGACCGGTTTTCCCGGTAATCCGTATTTGGG (site CACGTCACTCC)” the “recombinant UMI read abundance (log10)” value was 0.00865. In the case of “CAGGTCACATGGACCGGTTTTCCCGGTAATCCGTATTTGGG (site CAGGTCACTCC)”, the “recombinant UMI read abundance (log10)” value was 0.0396. For “CAGGTCACATGGACCGGTTTTCCCGGTAATCCGTATTTGGG (site CATGTCACTCC)”, the “recombinant UMI read abundance (log10)” value was 0.0163. In the case of “CAGGTCACATGGACCGGTTTTCCCGGTAATCCGTATTTGTC (site CAGGTCACTGA)”, the “recombinant UMI read abundance (log10)” value was 2.7. For “CAGGTGACATGGACCGGTTTTCCCGGTAATCCGTATTTGTA (site CAGGTGACTTA)”, the “recombinant UMI read abundance (log10)” value was 1.83. In the case of “CAGGTGGCATGGACCGGTTTTCCCGGTAATCCGTATTTGCG (site CAGGTGGCTCG)”, the “recombinant UMI read abundance (log10)” value was 1.88. For “CAGTAGACATGGACCGGTTTTCCCGGTAATCCGTATTTGGG (site CAGTAGACTCC)”, the “recombinant UMI read abundance (log10)” value was 0.653. For “CAGTAGACATGGACCGGTTTTCCCGGTAATCCGTATTTGGG (site CAGTCGACTCC)”, the “recombinant UMI read abundance (log10)” value was 0.00641. In the case of “CAGTAGACATGGACCGGTTTTCCCGGTAATCCGTATTTGGG (site CAGTGGACTCC)”, the “recombinant UMI read abundance (log10)” value was 0.00992. For “CAGTAGACATGGACCGGTTTTCCCGGTAATCCGTATTTGGG (site CAGTTGACTCC)”, the “recombinant UMI read abundance (log10)” value was 0.033. With “CAGTATCCATGGACCGGTTTTCCCGGTAATCCGTATTTGTT (site CAGTATCCTAA)” the “recombinant UMI read abundance (log10)” value was 1.87. In the case of “CAGTATCCATGGACCGGTTTTCCCGGTAATCCGTATTTGTT (site CGGAATCCTAA)”, the “recombinant UMI read abundance (log10)” value was 0.00316. In the case of “CAGTCGACATGGACCGGTTTTCCCGGTAATCCGTATTTGGA (site CAGTCGACTAC)”, the “recombinant UMI read abundance (log10)” value was 0.0073. With “CAGTCGACATGGACCGGTTTTCCCGGTAATCCGTATTTGGA (site CAGTCGACTCC)” the “recombinant UMI read abundance (log10)” value was 0.0138. In the case of “CAGTCGACATGGACCGGTTTTCCCGGTAATCCGTATTTGGA (site CAGTCGACTGC)”, the “recombinant UMI read abundance (log10)” value was 0.00544. For “CAGTCGACATGGACCGGTTTTCCCGGTAATCCGTATTTGGA (site CAGTCGACTTC)”, the “recombinant UMI read abundance (log10)” value was 0.0121. In the case of “CAGTCGACATGGACCGGTTTTCCCGGTAATCCGTATTTGGG (site AAGTCGACTCC)”, the “recombinant UMI read abundance (log10)” value was 0.0145. With “CAGTCGACATGGACCGGTTTTCCCGGTAATCCGTATTTGGG (site CAATCGACTCC)” the “recombinant UMI read abundance (log10)” value was 0.0099. For “CAGTCGACATGGACCGGTTTTCCCGGTAATCCGTATTTGGG (site CACTCGACTCC)”, the “recombinant UMI read abundance (log10)” value was 0.0212. With “CAGTCGACATGGACCGGTTTTCCCGGTAATCCGTATTTGGG (site CAGACGACTCC)” the “recombinant UMI read abundance (log10)” value was 0.083. For “CAGTCGACATGGACCGGTTTTCCCGGTAATCCGTATTTGGG (site CAGCCGACTCC)”, the “recombinant UMI read abundance (log10)” value was 0.00881. For “CAGTCGACATGGACCGGTTTTCCCGGTAATCCGTATTTGGG (site CAGGCGACTCC)”, the “recombinant UMI read abundance (log10)” value was 0. With “CAGTCGACATGGACCGGTTTTCCCGGTAATCCGTATTTGGG (site CAGTAGACTCC)” the “recombinant UMI read abundance (log10)” value was 0.34. For “CAGTCGACATGGACCGGTTTTCCCGGTAATCCGTATTTGGG (site CAGTCAACTCC)”, the “recombinant UMI read abundance (log10)” value was 0.0265. For “CAGTCGACATGGACCGGTTTTCCCGGTAATCCGTATTTGGG (site CAGTCCACTCC)”, the “recombinant UMI read abundance (log10)” value was 0.0168. In the case of “CAGTCGACATGGACCGGTTTTCCCGGTAATCCGTATTTGGG (site CAGTCGACTAC)”, the “recombinant UMI read abundance (log10)” value was 0.0109. In the case of “CAGTCGACATGGACCGGTTTTCCCGGTAATCCGTATTTGGG (site CAGTCGACTCA)”, the “recombinant UMI read abundance (log10)” value was 0.00973. For “CAGTCGACATGGACCGGTTTTCCCGGTAATCCGTATTTGGG (site CAGTCGACTCC)”, the “recombinant UMI read abundance (log10)” value was 0.297. With “CAGTCGACATGGACCGGTTTTCCCGGTAATCCGTATTTGGG (site CAGTCGACTCG)” the “recombinant UMI read abundance (log10)” value was 0. For “CAGTCGACATGGACCGGTTTTCCCGGTAATCCGTATTTGGG (site CAGTCGACTCT)”, the “recombinant UMI read abundance (log10)” value was 0.314. For “CAGTCGACATGGACCGGTTTTCCCGGTAATCCGTATTTGGG (site CAGTCGACTGC)”, the “recombinant UMI read abundance (log10)” value was 0. With “CAGTCGACATGGACCGGTTTTCCCGGTAATCCGTATTTGGG (site CAGTCGACTTC)” the “recombinant UMI read abundance (log10)” value was 0.00419. In the case of “CAGTCGACATGGACCGGTTTTCCCGGTAATCCGTATTTGGG (site CAGTCGCCTCC)”, the “recombinant UMI read abundance (log10)” value was 0.0239. For “CAGTCGACATGGACCGGTTTTCCCGGTAATCCGTATTTGGG (site CAGTCGGCTCC)”, the “recombinant UMI read abundance (log10)” value was 0.0315. With “CAGTCGACATGGACCGGTTTTCCCGGTAATCCGTATTTGGG (site CAGTCGTCTCC)” the “recombinant UMI read abundance (log10)” value was 0.151. In the case of “CAGTCGACATGGACCGGTTTTCCCGGTAATCCGTATTTGGG (site CAGTCTACTCC)”, the “recombinant UMI read abundance (log10)” value was 0.0277. With “CAGTCGACATGGACCGGTTTTCCCGGTAATCCGTATTTGGG (site CAGTGGACTCC)” the “recombinant UMI read abundance (log10)” value was 0.0181. For “CAGTCGACATGGACCGGTTTTCCCGGTAATCCGTATTTGGG (site CAGTTGACTCC)”, the “recombinant UMI read abundance (log10)” value was 0.0173. For “CAGTCGACATGGACCGGTTTTCCCGGTAATCCGTATTTGGG (site CATTCGACTCC)”, the “recombinant UMI read abundance (log10)” value was 0.0119. With “CAGTCGACATGGACCGGTTTTCCCGGTAATCCGTATTTGGG (site CCGTCGACTCC)” the “recombinant UMI read abundance (log10)” value was 0.00307.
